Data: PubChem BioAssay (NCI)
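Compound exposure: 48 hours, 5 concentrations, 96-well plates. The concentration for full growth arrest is given as TGI.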

Experiments:
Test in all cases: NCI tumour cell line growth inhibition, 48 h
MDA-N = test system: MDA-N
LXFL 529 NSCLC = test system: LXFL 529 NSCLC
DMS 114 small cell lung = test system: DMS 114 small cell lung
XF 498 CNS = test system: XF 498 CNS
DLD-1 colon = test system: DLD-1 colon
M19-MEL melanoma = test system: M19-MEL melanoma

| SMILES | TGI (MDA-N) [µM] | TGI (LXFL 529 NSCLC) [µM] | TGI (DMS 114 small cell lung) [µM] | TGI (XF 498 CNS) [µM] | TGI (DLD-1 colon) [µM] | TGI (M19-MEL melanoma) [µM] |
| --- | --- | --- | --- | --- | --- | --- |
| O=C(O)CS(=O)c1ccc2c3c(cccc13)C(=O)c1ccccc1-2 (stereo not given) | > 100 |  |  |  |  |  |
| O=C(Nc1ccc(Cl)cc1)c1cccc([N+](=O)[O-])c1O |  | 39.8 | 14.8 | 8.31 | > 100 | 9.07 |
| NC(Cc1ccccc1)=NCC(=O)O | > 100 |  |  |  |  |  |
| C\C=C/C=C/C=C/C(=O)O |  | > 100 | > 100 |  | > 100 |  |
